Experimental data as given in EP2208498B1, “PHARMACEUTICAL COMPOSITION COMBINING VARIOUS VENOTONIC AND VASOPROTECTIVE AGENTS FOR THE TREATMENT OF CHRONIC VENOUS INSUFFICIENCY” (priority 2007, dated 2009).

Assays:
[1] = tested on: patients with chronic venous insufficiency
Procedure: A randomized, comparative clinical study was carried out wherein 150 patients with chronic venous insufficiency were included.
All patients were firstly treated with conventional therapy, combining compression with pharmacological treatment.
A full clinical history with physical examination was prepared for the patients, being assessed with Echo Doppler and CEAP classification, see Table 1.

[2] = cited from earlier work
[3] = tested on: haemorrhoidal crises; conditions: 25 patients 1 500 mg per day calcium dobesilate; 26 patients 3000 mg per day flavonoid fraction of diosmine; cited from earlier work
[4] = Final symptomatology data after two months of treatment, n=50 per group, initial 100%

O=S(=O)(O)c1cc(O)ccc1O [calcium dobesilate, Calcium dobesilate]
Itch ([1]; Final symptomatology data after two months of treatment, n=50 per group, initial 80-88%): 0
Cramps [1, 4]: 0
Heaviness [1, 4]: 0
Limb pain [1, 4]: 0
Doppler ([1]; Final symptomatology data after two months of treatment, n=50 per group, initial >9): <9
reported side effects such as: head ache and tiredness sensation ([1]; human, in vivo): 14 patients
plasma peak ([2]; after oral administration): 8 µg/mL
time of plasma peak ([2]; after oral administration): around 6 hours
Plasma half-life ([2]; in vivo): about 5 hours
administered dose removed in feces ([2]; remaining dose): 50%
administered dose removed in urine ([2]; within the first 24 hours): 50%
improvement in haemorrhoidal crises (in words) [3]: significant improvement
